Measurements as given in PubChem BioAssay AID1919003 (Molecular Pharmacology Branch, DTP, NCI, 2023).

System: 786-0 complex spheroids with HUVEC/MSC, growth % test/control
Assay: Anticancer human tumor 786-0 cell line growth inhibition [AhR];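 further: compound exposure lasted seven days before the read-out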
Conditions: for IC50: curve of first compound; for viability, T/C: stronger effect = lower value
Outline: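 Complex tumor spheroids co-cultured with HUVEC and human MSC stroma; AhR antagonists tested in combination with standard-of-care and investigational agents. Top concentration at or near clinical Cmax (else 10 microM), half-log dilutions; growth expressed as percent test/control.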

[1] = second compound 0.1 µM, first compound 0.0316 µM
[2] = second compound 0.1 µM, first compound 0.1 µM
[3] = second compound 0.1 µM, first compound 0.316 µM
[4] = second compound 0.1 µM, first compound 1 µM
[5] = second compound 0.316 µM, first compound 0.0316 µM
[6] = second compound 0.316 µM, first compound 0.1 µM
[7] = second compound 0.316 µM, first compound 0.316 µM
[8] = second compound 0.316 µM, first compound 1 µM
[9] = second compound 1 µM, first compound 0.0316 µM
[10] = second compound 1 µM, first compound 0.1 µM
[11] = second compound 1 µM, first compound 0.316 µM
[12] = second compound 1 µM, first compound 1 µM
[13] = second compound 3.16 µM, first compound 0.0316 µM
[14] = second compound 3.16 µM, first compound 0.1 µM
[15] = second compound 3.16 µM, first compound 0.316 µM
[16] = second compound 3.16 µM, first compound 1 µM
[17] = second compound 10 µM, first compound 0.0316 µM
[18] = second compound 10 µM, first compound 0.1 µM
[19] = second compound 10 µM, first compound 0.316 µM
[20] = second compound 10 µM, first compound 1 µM
[21] = second compound 0.1 µM, first compound 3.16 µM
[22] = second compound 0.1 µM, first compound 10 µM
[23] = second compound 0.316 µM, first compound 3.16 µM
[24] = second compound 0.316 µM, first compound 10 µM
[25] = second compound 1 µM, first compound 3.16 µM
[26] = second compound 1 µM, first compound 10 µM
[27] = second compound 3.16 µM, first compound 3.16 µM
[28] = second compound 3.16 µM, first compound 10 µM
[29] = second compound 10 µM, first compound 3.16 µM
[30] = second compound 10 µM, first compound 10 µM
[31] = second compound 0.1 µM, first compound 0.00949 µM
[32] = second compound 0.1 µM, first compound 0.03 µM
[33] = second compound 0.1 µM, first compound 0.0949 µM
[34] = second compound 0.1 µM, first compound 0.3 µM
[35] = second compound 0.316 µM, first compound 0.00949 µM
[36] = second compound 0.316 µM, first compound 0.03 µM
[37] = second compound 0.316 µM, first compound 0.0949 µM
[38] = second compound 0.316 µM, first compound 0.3 µM
[39] = second compound 1 µM, first compound 0.00949 µM
[40] = second compound 1 µM, first compound 0.03 µM
[41] = second compound 1 µM, first compound 0.0949 µM
[42] = second compound 1 µM, first compound 0.3 µM
[43] = second compound 3.16 µM, first compound 0.00949 µM
[44] = second compound 3.16 µM, first compound 0.03 µM
[45] = second compound 3.16 µM, first compound 0.0949 µM
[46] = second compound 3.16 µM, first compound 0.3 µM
[47] = second compound 10 µM, first compound 0.00949 µM
[48] = second compound 10 µM, first compound 0.03 µM
[49] = second compound 10 µM, first compound 0.0949 µM
[50] = second compound 10 µM, first compound 0.3 µM

SMILES: CC1COCCN1c1cc(-c2ccnn2C)c2ccnc(-c3ccn[nH]3)c2n1 (stereo not given) + Cc1ccccc1N=Nc1ccc(NC(=O)c2ccnn2C)c(C)c1
- IC50 (second compound 0.1 µM): 196 nM
- IC50 (second compound 0.316 µM): 197 nM
- IC50 (second compound 1 µM): 211 nM
- IC50 (second compound 3.16 µM): 177 nM
- IC50 (second compound 10 µM): 155 nM
- viability, T/C (second compound 0.1 µM, first compound 0.00316 µM): 97.6%
- viability, T/C (second compound 0.1 µM, first compound 0.01 µM): 108%
- viability, T/C [1]: 105%
- viability, T/C [2]: 86.9%
- viability, T/C [3]: 23.9%
- viability, T/C [4]: 8.22%
- viability, T/C (second compound 0.316 µM, first compound 0.00316 µM): 107%
- viability, T/C (second compound 0.316 µM, first compound 0.01 µM): 109%
- viability, T/C [5]: 108%
- viability, T/C [6]: 86.2%
- viability, T/C [7]: 24.9%
- viability, T/C [8]: 8.15%
- viability, T/C (second compound 1 µM, first compound 0.00316 µM): 119%
- viability, T/C (second compound 1 µM, first compound 0.01 µM): 104%
- viability, T/C [9]: 102%
- viability, T/C [10]: 92.5%
- viability, T/C [11]: 26.9%
- viability, T/C [12]: 7.53%
- viability, T/C (second compound 3.16 µM, first compound 0.00316 µM): 99.5%
- viability, T/C (second compound 3.16 µM, first compound 0.01 µM): 112%
- viability, T/C [13]: 89.3%
- viability, T/C [14]: 77.7%
- viability, T/C [15]: 22.7%
- viability, T/C [16]: 10.2%
- viability, T/C (second compound 10 µM, first compound 0.00316 µM): 96.9%
- viability, T/C (second compound 10 µM, first compound 0.01 µM): 96.8%
- viability, T/C [17]: 96.1%
- viability, T/C [18]: 67.5%
- viability, T/C [19]: 21.2%
- viability, T/C [20]: 9.41%

SMILES: CC1COCCN1c1cc(C2(S(C)(=N)=O)CC2)nc(-c2ccnc3[nH]ccc23)n1 (stereo not given) + Cc1ccccc1N=Nc1ccc(NC(=O)c2ccnn2C)c(C)c1
- IC50 (second compound 0.1 µM): 6080 nM
- IC50 (second compound 0.316 µM): 5930 nM
- IC50 (second compound 1 µM): 6520 nM
- IC50 (second compound 3.16 µM): 6440 nM
- IC50 (second compound 10 µM): 5280 nM
- viability, T/C [1]: 96.9%
- viability, T/C [2]: 103%
- viability, T/C [3]: 97.7%
- viability, T/C [4]: 101%
- viability, T/C [21]: 79.6%
- viability, T/C [22]: 27.6%
- viability, T/C [5]: 92%
- viability, T/C [6]: 97.6%
- viability, T/C [7]: 102%
- viability, T/C [8]: 106%
- viability, T/C [23]: 72.7%
- viability, T/C [24]: 31.1%
- viability, T/C [9]: 98%
- viability, T/C [10]: 96.8%
- viability, T/C [11]: 103%
- viability, T/C [12]: 93.2%
- viability, T/C [25]: 79.5%
- viability, T/C [26]: 32.8%
- viability, T/C [13]: 99.9%
- viability, T/C [14]: 105%
- viability, T/C [15]: 91.5%
- viability, T/C [16]: 89.2%
- viability, T/C [27]: 70.3%
- viability, T/C [28]: 37.1%
- viability, T/C [17]: 97.7%
- viability, T/C [18]: 97.2%
- viability, T/C [19]: 102%
- viability, T/C [20]: 88.5%
- viability, T/C [29]: 62.5%
- viability, T/C [30]: 34.8%

SMILES: COc1ccc([C@@H](O)c2cc(-c3ncnc4cc(N5CCOCC5)ccc34)c(F)cc2Cl)nn1 + Cc1ccccc1N=Nc1ccc(NC(=O)c2ccnn2C)c(C)c1
- IC50 (second compound 0.1 µM): > 10000 nM
- IC50 (second compound 0.316 µM): > 10000 nM
- IC50 (second compound 1 µM): > 10000 nM
- IC50 (second compound 3.16 µM): > 10000 nM
- IC50 (second compound 10 µM): 9480 nM
- viability, T/C [1]: 90.6%
- viability, T/C [2]: 96%
- viability, T/C [3]: 99.4%
- viability, T/C [4]: 102%
- viability, T/C [21]: 102%
- viability, T/C [22]: 79.9%
- viability, T/C [5]: 97.6%
- viability, T/C [6]: 102%
- viability, T/C [7]: 99.2%
- viability, T/C [8]: 100%
- viability, T/C [23]: 106%
- viability, T/C [24]: 87.1%
- viability, T/C [9]: 86.4%
- viability, T/C [10]: 93.3%
- viability, T/C [11]: 96%
- viability, T/C [12]: 105%
- viability, T/C [25]: 97.1%
- viability, T/C [26]: 77.4%
- viability, T/C [13]: 84.8%
- viability, T/C [14]: 87.1%
- viability, T/C [15]: 82.9%
- viability, T/C [16]: 84.1%
- viability, T/C [27]: 89.3%
- viability, T/C [28]: 63.9%
- viability, T/C [17]: 96.9%
- viability, T/C [18]: 90.2%
- viability, T/C [19]: 81.9%
- viability, T/C [20]: 86.1%
- viability, T/C [29]: 72.8%
- viability, T/C [30]: 48.2%

SMILES: Nc1ncn(C2CC(O)C(CO)S2)c(=O)n1 (stereo not given) + Cc1ccccc1N=Nc1ccc(NC(=O)c2ccnn2C)c(C)c1
- IC50 (second compound 0.1 µM): > 300 nM
- IC50 (second compound 0.316 µM): > 300 nM
- IC50 (second compound 1 µM): > 300 nM
- IC50 (second compound 3.16 µM): > 300 nM
- IC50 (second compound 10 µM): > 300 nM
- viability, T/C (second compound 0.1 µM, first compound 0.000949 µM): 102%
- viability, T/C (second compound 0.1 µM, first compound 0.003 µM): 99.8%
- viability, T/C [31]: 105%
- viability, T/C [32]: 99.6%
- viability, T/C [33]: 83.6%
- viability, T/C [34]: 68.7%
- viability, T/C (second compound 0.316 µM, first compound 0.000949 µM): 100%
- viability, T/C (second compound 0.316 µM, first compound 0.003 µM): 100%
- viability, T/C [35]: 103%
- viability, T/C [36]: 98.2%
- viability, T/C [37]: 100%
- viability, T/C [38]: 73.1%
- viability, T/C (second compound 1 µM, first compound 0.000949 µM): 99.6%
- viability, T/C (second compound 1 µM, first compound 0.003 µM): 96.5%
- viability, T/C [39]: 112%
- viability, T/C [40]: 97.1%
- viability, T/C [41]: 91.2%
- viability, T/C [42]: 75%
- viability, T/C (second compound 3.16 µM, first compound 0.000949 µM): 93.3%
- viability, T/C (second compound 3.16 µM, first compound 0.003 µM): 99.9%
- viability, T/C [43]: 94%
- viability, T/C [44]: 101%
- viability, T/C [45]: 86%
- viability, T/C [46]: 69.6%
- viability, T/C (second compound 10 µM, first compound 0.000949 µM): 91.1%
- viability, T/C (second compound 10 µM, first compound 0.003 µM): 108%
- viability, T/C [47]: 90.8%
- viability, T/C [48]: 88.2%
- viability, T/C [49]: 82.8%
- viability, T/C [50]: 63.4%

SMILES: O=C(C=Cn1cnc(-c2cc(C(F)(F)F)cc(C(F)(F)F)c2)n1)NNc1cnccn1 + Cc1ccccc1N=Nc1ccc(NC(=O)c2ccnn2C)c(C)c1
- IC50 (second compound 0.1 µM): 542 nM
- IC50 (second compound 0.316 µM): 520 nM
- IC50 (second compound 1 µM): 470 nM
- IC50 (second compound 3.16 µM): 566 nM
- IC50 (second compound 10 µM): 424 nM
- viability, T/C [31]: 103%
- viability, T/C [32]: 108%
- viability, T/C [33]: 104%
- viability, T/C [34]: 59.5%
- viability, T/C (second compound 0.1 µM, first compound 0.949 µM): 41.4%
- viability, T/C (second compound 0.1 µM, first compound 3 µM): 15.4%
- viability, T/C [35]: 109%
- viability, T/C [36]: 105%
- viability, T/C [37]: 115%
- viability, T/C [38]: 64.7%
- viability, T/C (second compound 0.316 µM, first compound 0.949 µM): 38%
- viability, T/C (second compound 0.316 µM, first compound 3 µM): 17.3%
- viability, T/C [39]: 113%
- viability, T/C [40]: 100%
- viability, T/C [41]: 104%
- viability, T/C [42]: 55.8%
- viability, T/C (second compound 1 µM, first compound 0.949 µM): 38%
- viability, T/C (second compound 1 µM, first compound 3 µM): 16.4%
- viability, T/C [43]: 91.6%
- viability, T/C [44]: 92.7%
- viability, T/C [45]: 101%
- viability, T/C [46]: 63.7%
- viability, T/C (second compound 3.16 µM, first compound 0.949 µM): 38.6%
- viability, T/C (second compound 3.16 µM, first compound 3 µM): 18.2%
- viability, T/C [47]: 88.4%
- viability, T/C [48]: 84.8%
- viability, T/C [49]: 74.5%
- viability, T/C [50]: 56.4%
- viability, T/C (second compound 10 µM, first compound 0.949 µM): 34.8%
- viability, T/C (second compound 10 µM, first compound 3 µM): 17.3%
